Data reported in US11472844B2, “Peptidomimetics, method of synthesis and uses thereof” (priority 2017, dated 2022).
*: point of attachment. X1 = CC[N+]1=C(/C=C/C=C/C=C2N(CCCCCC(=O)NCCN3C(=O)CC(*)C3=O)c3ccc(S(=O)(=O)O)cc3C2(C)C)C(C)(C)c2cc(S(=O)(=O)[O-])ccc21

Tested on: neutrophils recruited to guinea pig colonic mucosa infected with Shigella flexneri
Assay: Guinea pig model of shigellosis, staining of fixed colon sections
Procedure: Guinea pig. The experimental protocol was approved by the french Ethic Committee Paris (n° 20140069, 2014). Young guinea pigs (Hartley, <150 g, Charles River) were anaesthetized and infected intrarectally with 10^9 CFU exponentially grown Shigella flexneri 5a (M90T) pGFP as previously described (Shim et al. 2007) (Monceaux et al. 2016). Infection occurred during 8 hours before animals were sacrificed and infected colons collected and fixed in 4% Paraformaldehyde (PFA) for two hours. For immunohistochemical staining, infected guinea pig colon samples were washed in PBS and incubated at 4° C. in PBS containing 16% sucrose for 4 hours, followed by incubation in PBS with 30% sucrose overnight. Samples were frozen in OCT (VWR 361603E) on dry ice. Frozen blocks were stored at −80 until sectioning. 10 to 30 μm sections were obtained using a cryostat CM-3050S (Leica). Tissue slices were labeled in PBS+0.1% saponin (Sigma-Aldrich) with MUB40-Cy5 or MUB40-Dylight (1 μg/ml) to localize recruited neutrophils. Slides were washed three time in PBS+0.1% saponin, three times in PBS, and three times in deionized H2O and mounted with prolong gold^tm mounting media.

## Ac-C(X1)TAEGIKKFEGDGYELFKDNFPAGEKFDNDDTNDQFYTVIF-NH2 [Cy5-MUB40#1]
Fixed guinea pig colonic mucosa infected by Shigella flexneri, 1 μg/mL
  detection of neutrophil lactoferrin secretion: successfully revealed
Guinea pig colon, Shigella flexneri, 1 μg/ml
  labelling of recruited neutrophils: specifically labeled
